What was measured:
[1] = tested on: transient focal Middle Cerebral Artery Occlusion/Reperfusion model (MCAO/R model); assay: Neurobehavioral evaluation (Bederson classification) after MCAO/R; details: Bederson Grade 0-4, SD rat, 50 mg/kg intraperitoneal, vehicle group 2.80
[2] = tested on: transient focal Middle Cerebral Artery Occlusion/Reperfusion model (MCAO/R model); assay: Evaluation of the effect of preventing nerve damage: total infarct volume (TTC staining) in MCAO/R model; assay type: in vivo, male Sprague Dawley rat; details: SD rat, 50 mg/kg intraperitoneal once 10 minutes before MCAO/R; 1 hour ischemia, 24 hours blood reperfusion; vehicle group 40.48
Protocol: Besides the foresaid experimental groups, only pure solvent used was treated as vehicle group, and a sham group, which was not administrated with any compound or solvent or with nylon monofilament to cause obstruction and ischemia, was also included. In this test example, transient focal Middle Cerebral Artery Occlusion/Reperfusion model (MCAO/R model) was adopted to simulate ischemic stroke for evaluating the subsequent nerve damage. Specifically, male Sprague Dawley rat (SD rat) was adopted and anaesthetized with 2% isoflurane, and then the right common carotid artery, external carotid artery and internal carotid artery were distinguished among them from the neck. Next, a nylon monofilament with length of 22 millimeters (mm), size number of 4/0 and capped with polysiloxane was inserted into the external carotid artery and along with the […] to the circle of Willis to induce obstruction and ischemia in the middle cerebral artery. After causing obstruction and ischemia for 1 hour, the nylon monofilament was removed to allow the blood recirculated to the brain, in other words, to undergo blood reperfusion. After blood reperfusion for 24 hours, the rat was sacrificed and the brain thereof was placed into a cooled 0.95% saline. […] Afterward, the sliced brain tissues were stained with a 4% […] solution, and then MacroPATH Digital Imaging System was used to record the images and the obtained images were analyzed by ImageJ 1.52a to count the infarct volume percent, which could represent the degree of nerve damage. The foresaid infarct volume percent was obtained by adding the values acquired by multiplying the proportion of infarct area of each sliced brain tissue with their thickness, and the proportion of infarct area was calculated by the equation: (B−A)/B×100%; wherein, “A” represented the undamaged area in the damaged cerebral hemisphere on the right side, and “B” represented the total area of the undamaged cerebral hemisphere on the left side. […]

COc1c(C)c(CC=C(C)C)c(OC)c2c1OCO2 [Example 1]
Grade (neurobehavioral evaluation), time point of 0.5-hour after blood reperfusion [1]: 2.60 | Grade (neurobehavioral evaluation), time point of 1.5-hour after blood reperfusion [1]: 2.80 | Grade (neurobehavioral evaluation), time point of 24-hour after blood reperfusion ([1]; 24 hour after blood reperfusion): 2.60 | Total infarct volume percent (%) [2]: 28.82%

COc1cc(COC(C)=O)c(OC)c2c1OCO2 [Example 3]
Grade (neurobehavioral evaluation), time point of 0.5-hour after blood reperfusion [1]: 2.80 | Grade (neurobehavioral evaluation), time point of 1.5-hour after blood reperfusion [1]: 2.60 | Total infarct volume percent (%) [2]: 17.13%

COc1cc(CC=C(C)C)c(OC)c2c1OCO2 [Example 4]
Grade (neurobehavioral evaluation), time point of 0.5-hour after blood reperfusion [1]: 2.60 | Grade (neurobehavioral evaluation), time point of 1.5-hour after blood reperfusion [1]: 2.60 | Total infarct volume percent (%) [2]: 16.4%

— patent US11987566B2, “Nerve damage preventing and nerve protecting compounds, preparation method thereof, pharmaceutical composition thereof, and their use” (GENHEALTH PHARMA CO., LTD., priority 2022, dated 2024)
